# From PMC12647143 (Nature Communications, 2025)
# Key:
# MRSA ATCC 33591 [1] = experiment: Antimicrobial-resistance test; type: cell-based, methicillin-resistant Staphylococcus aureus; conditions: for increase in MIC after continuous 14 passages exposure: MRSA ATCC 33591, 1/2 × MIC
# [2] = tested on: K. pneumoniae ATCC 700603; experiment: Antimicrobial-resistance test; type: cell-based, Klebsiella pneumoniae; conditions: 1/2 × MIC
# MRSA ATCC 33591 [3] = experiment: ROS accumulation assay; type: cell-based, methicillin-resistant Staphylococcus aureus; conditions: 2 × MIC and 4 × MIC
# MRSA ATCC 33591 [4] = experiment: Bacteria-induced pneumonia model; type: in vivo, Kunming mice; conditions: MRSA ATCC 33591 pneumonia model
# [5] = tested on: K. pneumoniae ATCC 700603; experiment: ROS accumulation assay; type: cell-based, Klebsiella pneumoniae; conditions: 1 ×, 2 ×, 4 × MIC
# [6] = tested on: K. pneumoniae ATCC 700603; experiment: Bacteria-induced pneumonia model; type: in vivo, Kunming mice
# [7] = RT-qPCR of Cystatin C, Lipocalin 2, Havcr1 mRNA in kidney; type: in vivo, Kunming mice; conditions: AMP 1003 20 or 30 mg/kg; polymyxin B 20 mg/kg
# [8] = Renal tubular injury score; conditions: AMP 1003 20 or 30 mg/kg; polymyxin B 20 mg/kg; score 0-5
# [9] = ELISA of NGAL, Cystatin C and Kim-1 in serum and urine; conditions: 20 mg/kg or 30 mg/kg; 7 days
# [10] = In vivo toxicity assay, single intraperitoneal injection
# [11] = tested on: multidrug-resistant bacteria; conditions: cited from earlier work
# mammalian cells = conditions: cited from earlier work
compound,measurement,setting,value
CNC(C)C1CCC(N)C(OC2C(N)CC(N)C(OC3OCC(C)(O)C(NC)C3O)C2O)O1 (centres unmarked) [Gentamicin],increase in MIC after continuous 14 passages exposure,MRSA ATCC 33591 [1],up to 128 fold
same,increase in MIC (cross-resistance),MRSA ATCC 33591 [1]; final generation of MRSA ATCC 33591 treated with the peptide for 14 passages,128 fold
same,increase in MIC after continuous 14 passages exposure,[2],up to 512 fold
C[C@@H](O)[C@H]1C(=O)N2C(C(=O)O)=C(SCCN=CN)C[C@H]12 [Imipenem],increase in MIC after continuous 14 passages exposure,MRSA ATCC 33591 [1],up to 8 fold
same,increase in MIC after continuous 14 passages exposure,[2],up to 16 fold
CN(C)c1ccc(O)c2c1C[C@H]1C[C@H]3[C@H](N(C)C)C(O)=C(C(N)=O)C(=O)[C@@]3(O)C(O)=C1C2=O [Minocycline],increase in MIC after continuous 14 passages exposure,[2],up to 8 fold
CN[C@H](CC(C)C)C(=O)N[C@H]1C(=O)N[C@@H](CC(N)=O)C(=O)N[C@H]2C(=O)N[C@H]3C(=O)N[C@H](C(=O)N[C@H](C(=O)O)c4cc(O)cc(O)c4-c4cc3ccc4O)[C@H](O)c3ccc(c(Cl)c3)Oc3cc2cc(c3O[C@@H]2O[C@H](CO)[C@@H](O)[C@H](O)[C@H]2O[C@H]2C[C@](C)(N)[C@H](O)[C@H](C)O2)Oc2ccc(cc2Cl)[C@H]1O [Vancomycin],ROS accumulation,MRSA ATCC 33591 [3],no such effect
same,lung histology (H&E),MRSA ATCC 33591 [4],substantially alleviated these pathological changes
Polymyxin B,ROS accumulation,[5],ROS elevation was observed only at 2 × MIC and 4 × MIC
same,lung histology (H&E),[6]; K. pneumoniae ATCC 700603 pneumonia model,substantially alleviated these pathological changes
same,decrease of bacterial load in the lungs,"[6]; K. pneumoniae ATCC 700603 pneumonia, 5 mg/kg i.p. at 4, 8, 12 h, 24 h, n = 6",1.58 log10CFU
same,"Cystatin C, Lipocalin 2 and Havcr1 mRNA in the kidneys",[7],notable increase in Cystatin C and Lipocalin 2 mRNA levels
same,renal tubular injury scores,[8],significantly higher injury scores than normal mice
same,"NGAL, Cystatin C and Kim-1 levels in serum or urine",[9],did not cause noticeable changes
same,"organ indices (heart, liver, spleen, lung, kidney)","[10]; 7 days, vs control group",higher than that in the control group
same,BUN and CREA levels,"[10]; 7 days, AMP 1003 20, 30 or 40 mg/kg, polymyxin B 20 mg/kg",comparable to that of control group
same,"hepatotoxicity (ALT, AST)","[10]; 7 days, AMP 1003 all doses, polymyxin B 20 mg/kg",no apparent hepatotoxicity
same,organ histology (H&E),[10]; AMP 1003: only at 40 mg/kg,more severe tissue damage
melittin,MIC,[11],1 to 16 µM
same,concentration causing cytotoxicity and hemolysis,mammalian cells,2000 nM
